Literature values as cited in patent US20050101653A1, “Combination therapy for the treatment of migraine” (priority 1999, published 2005).

System: carotid vascular resistance
Settings: anaesthetized dog

For CNS(=O)(=O)Cc1ccc2[nH]cc(CCN(C)C)c2c1 [Sumatriptan, sumatriptan], the “effect on carotid vascular resistance” value is listed as “selective increase in carotid vascular resistance”.
